Like-named read-outs stand apart in the source and are kept apart here. Starred links: 1 amine or outer side, 2 acyl side, 3 side chain; linkers in the order of their positions; H or OH if unused. Non-standard residues stand in square brackets, D forms with d. Residues, ends and D or L forms follow the SMILES beside them. Groups on a side chain read outwards from the residue. *: point of attachment. NH(1,3-benzodioxol-5-yl) = c1cc2c(cc1N*)OCO2; X19 = O=[N+]([O-])c1cc(N*)ccc1N1CCCCC1; Pyrazinecarbonyl = O=C(c1cnccn1)*; X30 = O=[N+]([O-])c1cccc(N*)c1; pNA = O=[N+]([O-])c1ccc(N*)cc1; X28 = c1ccc(Oc2cccc(N*)c2)cc1; Hyp = O=C(O)[CH]1C[CH](O)CN1; NH(3-MeOPh) = COc1cccc(N*)c1; X3 = c1ccc(-c2ccccc2N*)cc1; 3Abz = Nc1cccc(C(=O)O)c1; X18 = CC(=O)c1cccc(N*)c1; X39 = CC(=O)c1ccc(N*)cc1; X43 = Clc1cc(N*)cc(Cl)n1; X17 = c1nc2ccc(N*)cc2s1; X9 = COc1ccc(OC)c(N*)c1; 2Abz = Nc1ccccc1C(=O)O; X14 = Clc1ccc(N*)cc1Cl; X46 = Clc1cccc(Cl)c1N*; Abu = CC[CH](N)C(=O)O; X34 = N#Cc1cccc(N*)c1; X38 = CC(C)c1ccccc1N*; CO = O=C([*:1])[*:2]; NHBn = c1ccc(CN*)cc1; X47 = COc1ccccc1N*
Biological target: T1, HCV NS3 protease (Hepatitis C virus genotype 1a, UniProt P27958)
T1 construct: more particularly HCV NS3 proteases
Assay: Enzyme inhibition of HCV NS3 serine protease (cleavage of peptide substrate / EDVV AbuC-p-nitroanilide, with or without NS4A)
Type: biochemical
Procedure: Cleavage reactions were quenched by the addition of an equal volume of a mixture of 10% TFA:acetonitrile (1:1) and activity was assessed on a reversed phase HPLC column (Rainin C18 Microsorb-MV, […], 4.6×250 mm; 0-50% acetonitrile, 0.1% TFA@ 3.33% min) using a Hewlett Packard 1050 instrument with auto-injection and diode array detection at 210 nm and 280 nm (where appropriate). Peptide elution fragments were collected and identified by mass spectrometry and N-terminal sequence analysis. Fragment identity and concentration was further verified by authentic, synthesized products. Initial rates of cleavage were determined at <20% substrate conversion and catalytic parameters were determined assuming Michaelis-Menten kinetics using the MultiFit program (Day Computing, Cambridge, Mass.).
Spectrophotometric assays were run in a 96-well microtiter plate at 30 C, using a SpectraMax 250 reader (Molecular Devices, Sunnyvale, Calif.) with kinetic capability. Cleavage of EDVV AbuC-p-nitroanilide (5A-pNA) substrate was performed with or without […] in the same buffer used for HPLC assays at 30 C, and pNA release was monitored at 405 nm. The extinction-coefficient of p-nitroaniline is independent of pH at values of 5.5. and above [Tuppy, H., et al., Hoppe-Seyler's Z. Physiol. Chem., 329, pp. 278-288 (1962)]; Raybuck and Luong, unpublished observations).
Kinetic constants for the rapid equilibrium ordered bisubstrate reaction were determined from rate vs [4A], [EDVV AbuC-pNA] data by non-linear least squares fitting to equation 1 [Morrison, J. F. Biochim. Biophys. Acta, 185, pp. 269-286 (1969)] as described in the text. Kii and Kis values for peptidyl inhibitors were determined from rate vs [inhibitor], [substrate] data and fitting to the equation for mixed inhibition: rate=Vmax[S]/{Km(1+[I]/Kis)+[S](1+[I]/Kii)} The commercial program KinetAsyst (StateCollege, Pa.) was used for both procedures. Ki values were calculated from rate vs [inhibitor] plots by a nonlinear least squares fit of the data to the equation of Morrison for tight binding competitive inhibition [Morrison, J. F. Biochim. Biophys. Acta, 185, pp. 269-286 (1969)]. The KineTic program (BioKin Ltd) was used for this procedure.
Ki values are expressed in μM. Category “A” indicates <1 μM inhibition; category “B” indicates 1-100 μM inhibition; category “C” indicates >100 μM.

[1] = Enzyme inhibition data, Ki from rate vs [inhibitor] plots, Morrison tight binding competitive inhibition fit, 30 C, pH 7.8, read-out: Ki

T1 sequence (P27958 1027-1208): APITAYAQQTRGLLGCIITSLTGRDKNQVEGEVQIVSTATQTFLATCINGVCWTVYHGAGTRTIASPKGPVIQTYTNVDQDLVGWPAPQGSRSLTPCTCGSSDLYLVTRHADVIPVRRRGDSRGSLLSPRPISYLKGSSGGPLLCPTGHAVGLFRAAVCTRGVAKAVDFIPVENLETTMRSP

Row | SMILES | Ki [1] | Ki
1 | CCC(C=O)NC(=O)C1CC(OC(=O)Nc2ccc(N3CCCCC3)c([N+](=O)[O-])c2)CN1C(=O)C(NC(=O)C(NC(=O)c1cnccn1)C(C)C)C(C)C (stereo not shown) [Compound 34] (Pyrazinecarbonyl-VV[Hyp]([CO-X19])[Abu]-aldehyde; configuration not given here) | 1 to 100 µM | –
2 | CCC(C=O)NC(=O)C1CC(OC(=O)Nc2ccc3ncsc3c2)CN1C(=O)C(NC(=O)C(NC(=O)c1cnccn1)C(C)C)C(C)C (stereo not shown) [Compound 35] (Pyrazinecarbonyl-VV[Hyp]([CO-X17])[Abu]-aldehyde; configuration not given here) | 1 to 100 µM | –
3 | CCC(C=O)NC(=O)C1CC(OC(=O)Nc2cccc(C(C)=O)c2)CN1C(=O)C(NC(=O)C(NC(=O)c1cnccn1)C(C)C)C(C)C (stereo not shown) [Compound 36] (Pyrazinecarbonyl-VV[Hyp]([CO-X18])[Abu]-aldehyde; configuration not given here) | > 100 µM | –
4 | CCC(C=O)NC(=O)C1CC(OC(=O)Nc2ccc(C(C)=O)cc2)CN1C(=O)C(NC(=O)C(NC(=O)c1cnccn1)C(C)C)C(C)C (stereo not shown) [Compound 37] (Pyrazinecarbonyl-VV[Hyp]([CO-X39])[Abu]-aldehyde; configuration not given here) | 1 to 100 µM | –
5 | CCC(C=O)NC(=O)C1CC(OC(=O)Nc2cccc(C#N)c2)CN1C(=O)C(NC(=O)C(NC(=O)c1cnccn1)C(C)C)C(C)C (stereo not shown) [Compound 38] (Pyrazinecarbonyl-VV[Hyp]([CO-X34])[Abu]-aldehyde; configuration not given here) | 1 to 100 µM | –
6 | CCC(C=O)NC(=O)C1CC(OC(=O)Nc2ccc([N+](=O)[O-])cc2)CN1C(=O)C(NC(=O)C(NC(=O)c1cnccn1)C(C)C)C(C)C (stereo not shown) [Compound 39] (Pyrazinecarbonyl-VV[Hyp]([CO-pNA])[Abu]-aldehyde; configuration not given here) | 1 to 100 µM | –
7 | CCC(C=O)NC(=O)C1CC(OC(=O)Nc2cccc([N+](=O)[O-])c2)CN1C(=O)C(NC(=O)C(NC(=O)c1cnccn1)C(C)C)C(C)C (stereo not shown) [Compound 40] (Pyrazinecarbonyl-VV[Hyp]([CO-X30])[Abu]-aldehyde; configuration not given here) | 1 to 100 µM | –
8 | CCC(C=O)NC(=O)C1CC(OC(=O)Nc2cc(OC)ccc2OC)CN1C(=O)C(NC(=O)C(NC(=O)c1cnccn1)C(C)C)C(C)C (stereo not shown) [Compound 41] (Pyrazinecarbonyl-VV[Hyp]([CO-X9])[Abu]-aldehyde; configuration not given here) | 1 to 100 µM | –
9 | CCC(C=O)NC(=O)C1CC(OC(=O)Nc2cccc(OC)c2)CN1C(=O)C(NC(=O)C(NC(=O)c1cnccn1)C(C)C)C(C)C (stereo not shown) [Compound 42] (Pyrazinecarbonyl-VV[Hyp]([CO-NH(3-MeOPh)])[Abu]-aldehyde; configuration not given here) | 1 to 100 µM | –
10 | CCC(C=O)NC(=O)C1CC(OC(=O)Nc2ccccc2OC)CN1C(=O)C(NC(=O)C(NC(=O)c1cnccn1)C(C)C)C(C)C (stereo not shown) [Compound 43] (Pyrazinecarbonyl-VV[Hyp]([CO-X47])[Abu]-aldehyde; configuration not given here) | 1 to 100 µM | –
11 | CCC(C=O)NC(=O)C1CC(OC(=O)Nc2ccc3c(c2)OCO3)CN1C(=O)C(NC(=O)C(NC(=O)c1cnccn1)C(C)C)C(C)C (stereo not shown) [Compound 44] (Pyrazinecarbonyl-VV[Hyp]([CO-NH(1,3-benzodioxol-5-yl)])[Abu]-aldehyde; configuration not given here) | 1 to 100 µM | –
12 | CCC(C=O)NC(=O)C1CC(OC(=O)Nc2c(Cl)cccc2Cl)CN1C(=O)C(NC(=O)C(NC(=O)c1cnccn1)C(C)C)C(C)C (stereo not shown) [Compound 45] (Pyrazinecarbonyl-VV[Hyp]([CO-X46])[Abu]-aldehyde; configuration not given here) | 1 to 100 µM | –
13 | CCC(C=O)NC(=O)C1CC(OC(=O)Nc2ccc(Cl)c(Cl)c2)CN1C(=O)C(NC(=O)C(NC(=O)c1cnccn1)C(C)C)C(C)C (stereo not shown) [Compound 46] (Pyrazinecarbonyl-VV[Hyp]([CO-X14])[Abu]-aldehyde; configuration not given here) | 1 to 100 µM | –
14 | CCC(C=O)NC(=O)C1CC(OC(=O)NCc2ccccc2)CN1C(=O)C(NC(=O)C(NC(=O)c1cnccn1)C(C)C)C(C)C (stereo not shown) [Compound 50] (Pyrazinecarbonyl-VV[Hyp]([CO-NHBn])[Abu]-aldehyde; configuration not given here) | 1 to 100 µM | –
15 | CCC(C=O)NC(=O)C1CC(OC(=O)Nc2cc(Cl)nc(Cl)c2)CN1C(=O)C(NC(=O)C(NC(=O)c1cnccn1)C(C)C)C(C)C (stereo not shown) [Compound 51] (Pyrazinecarbonyl-VV[Hyp]([CO-X43])[Abu]-aldehyde; configuration not given here) | 1 to 100 µM | –
16 | CCC(C=O)NC(=O)C1CC(OC(=O)Nc2ccccc2-c2ccccc2)CN1C(=O)C(NC(=O)C(NC(=O)c1cnccn1)C(C)C)C(C)C (stereo not shown) [Compound 52] (Pyrazinecarbonyl-VV[Hyp]([CO-X3])[Abu]-aldehyde; configuration not given here) | 1 to 100 µM | –
17 | CCC(C=O)NC(=O)C1CC(OC(=O)Nc2cccc(Oc3ccccc3)c2)CN1C(=O)C(NC(=O)C(NC(=O)c1cnccn1)C(C)C)C(C)C (stereo not shown) [Compound 53] (Pyrazinecarbonyl-VV[Hyp]([CO-X28])[Abu]-aldehyde; configuration not given here) | 1 to 100 µM | –

Row | SMILES | Ki [1] | Ki
18 | CCC(C=O)NC(=O)C1CC(OC(=O)Nc2ccccc2C(C)C)CN1C(=O)C(NC(=O)C(NC(=O)c1cnccn1)C(C)C)C(C)C (stereo not shown) [Compound 54] (Pyrazinecarbonyl-VV[Hyp]([CO-X38])[Abu]-aldehyde; configuration not given here) | 1 to 100 µM | –
19 | CCC(C=O)NC(=O)C1CC(OC(=O)Nc2ccccc2C(=O)OC)CN1C(=O)C(NC(=O)C(NC(=O)c1cnccn1)C(C)C)C(C)C (stereo not shown) [Compound 55] (Pyrazinecarbonyl-VV[Hyp]([CO-2Abz-OMe])[Abu]-aldehyde; configuration not given here) | 1 to 100 µM | –
20 | CCOC(=O)c1cccc(NC(=O)OC2CC(C(=O)NC(C=O)CC)N(C(=O)C(NC(=O)C(NC(=O)c3cnccn3)C(C)C)C(C)C)C2)c1 (stereo not shown) [Compound 56] (Pyrazinecarbonyl-VV[Hyp]([CO-3Abz-OEt])[Abu]-aldehyde; configuration not given here) | > 100 µM | –
21 | CCC(C=O)NC(=O)C1CC(NC(=O)c2ccc(Cl)c(Cl)c2)CN1C(=O)C(NC(=O)C(NC(=O)c1cnccn1)C(C)C)C(C)C (stereo not shown) [Compound 57] | 1 to 100 µM | –
22 | CCC(C=O)NC(=O)C1CC(NC(=O)NCc2ccccc2)CN1C(=O)C(NC(=O)C(NC(=O)c1cnccn1)C(C)C)C(C)C (stereo not shown) [Compound 58] | 1 to 100 µM | –
23 | CCC(C=O)NC(=O)C1CC(NC(=O)N2CCOCC2)CN1C(=O)C(NC(=O)C(NC(=O)c1cnccn1)C(C)C)C(C)C (stereo not shown) [Compound 59] | 1 to 100 µM | –
24 | CCC(C=O)NC(=O)C1CC(NC(=O)OCc2ccccc2)CN1C(=O)C(NC(=O)C(NC(=O)c1cnccn1)C(C)C)C(C)C (stereo not shown) [Compound 60] | > 100 µM | –
25 | C=CCOC(=O)NC1CC(C(=O)NC(C=O)CC)N(C(=O)C(NC(=O)C(NC(=O)c2cnccn2)C(C)C)C(C)C)C1 (stereo not shown) [Compound 61] | > 100 µM | –
26 | CCC(C=O)NC(=O)C1CC(NC(=O)c2ccccc2)CN1C(=O)C(NC(=O)C(NC(=O)c1cnccn1)C(C)C)C(C)C (stereo not shown) [Compound 62] | 1 to 100 µM | –
27 | CCC(C=O)NC(=O)C1CC(NC(=O)CCc2ccccc2)CN1C(=O)C(NC(=O)C(NC(=O)c1cnccn1)C(C)C)C(C)C (stereo not shown) [Compound 63] | 1 to 100 µM | –
28 | CCC(C=O)NC(=O)C1CC(NC(=O)C(=O)c2ccccc2)CN1C(=O)C(NC(=O)C(NC(=O)c1cnccn1)C(C)C)C(C)C (stereo not shown) [Compound 64] | 1 to 100 µM | –
29 | CCC(C=O)NC(=O)C1CC(NS(=O)(=O)Cc2ccccc2)CN1C(=O)C(NC(=O)C(NC(=O)c1cnccn1)C(C)C)C(C)C (stereo not shown) [Compound 65] | 1 to 100 µM | –
30 | CCC(C=O)NC(=O)C1CC(NCc2ccccc2)CN1C(=O)C(NC(=O)C(NC(=O)c1cnccn1)C(C)C)C(C)C (stereo not shown) [Compound 67] | > 100 µM | –
31 | CCC(NC(=O)C1CC(OCc2ccc(Cl)c(Cl)c2)CN1C(=O)C(NC(=O)C(NC(=O)c1cnccn1)C(C)C)C(C)C)P(=O)(Oc1ccccc1)Oc1ccccc1 (stereo not shown) [Compound 71] | – | < 1 µM
32 | CCC(NC(=O)C1CC(OCc2ccc3ccccc3c2)CN1C(=O)C(NC(=O)C(NC(=O)c1cnccn1)C(C)C)C(C)C)P(=O)(Oc1ccccc1)Oc1ccccc1 (stereo not shown) [Compound 72] | – | 1 to 100 µM
33 | CCC(NC(=O)C1CC(OCc2ccccc2)CN1C(=O)C(NC(=O)C(NC(=O)c1cnccn1)C(C)C)C(C)C)P(=O)(Oc1ccccc1)Oc1ccccc1 (stereo not shown) [Compound 73] | – | 1 to 100 µM
34 | CCC(NC(=O)C1CC(OCc2ccccc2)CN1C(=O)C(NC(=O)C(NC(=O)c1cnccn1)C(C)C)C(C)C)C(=O)C(F)(F)C(F)(F)F (stereo not shown) [Compound 75] | 1 to 100 µM | –
